The term bioavailability denotes the share of a dose that reaches the circulation, judged against a reference dose that is usually intravenous. What is called MRT is a mean duration of stay, worked out from the concentration-time curve. For orientation: clearance means the rate of elimination divided by the concentration.

This is an account of results in ChEMBL document CHEMBL5370643, “Discovery of MK-1468: A Potent, Kinome-Selective, Brain-Penetrant Amidoisoquinoline LRRK2 Inhibitor for the Potential Treatment of Parkinson's Disease” (J Med Chem, 2023).

Series [1] can be described thus: Toxicity in rhesus monkey assessed as body weight loss at 100 to 800 mg/kg, po administered once daily for 7 days. The conditions noted are these: in vivo, 168 h, dose 100-800 mg/kg, time 7 day. Type of series: organism-based, Macaca mulatta.
Series [2] can be described thus: Oral bioavailability in rhesus monkey at 10 mg/kg measured after 24 hrs by LC-MS/MS analysis. It is filed as ADME, organism-based, Macaca mulatta. The conditions noted are these: in vivo.
Series [3] in a line: Toxicity in Wistar-Han rat assessed as effect on diastolic blood pressure at 60 mg/kg, po administered as single dose and measured upto 24 hrs by telemetric analysis. Type of series: organism-based. Conditions: in vivo.
Series [4] is described as follows: MRT in Beagle dog at 0.5 mg/kg, iv measured after 24 hrs by LC-MS/MS analysis. It is filed as ADME, organism-based, Canis lupus familiaris. The conditions noted are these: in vivo.
Series [5] in a line: Total clearance in rhesus monkey at 3 mg/kg, iv measured after 24 hrs by LC-MS/MS analysis. It is filed as ADME, organism-based, Macaca mulatta. Conditions: in vivo.
Series [6] can be described thus: Toxicity in rhesus monkey assessed as clinical observation at 100 to 800 mg/kg, po administered once daily for 7 days. Conditions: in vivo, 168 h, dose 100-800 mg/kg, time 7 day. Type of series: organism-based, Macaca mulatta.

On to `C[C@@]1(N2CCN(c3cc4cc(NC(=O)[C@H]5CC56CCOCC6)ncc4cc3Cl)CC2)COC[C@@H]1O`, for which the Activity entry in series [1], in series [3] and in series [6] was “Non-Toxic” in each case. In series [2], this compound displayed a bioavailability of 9%. Further, the MRT in series [4] turned out to be 29 h. Further, the clearance in series [5] came out at 22 mL/min/kg.
